Measured values taken from patent publication US11931343B2 (ARCUS BIOSCIENCES, INC., priority 2018, dated 2024).

Target: T1, human CD73 (Homo sapiens, UniProt P21589)
T1 sequence (P21589 27-549): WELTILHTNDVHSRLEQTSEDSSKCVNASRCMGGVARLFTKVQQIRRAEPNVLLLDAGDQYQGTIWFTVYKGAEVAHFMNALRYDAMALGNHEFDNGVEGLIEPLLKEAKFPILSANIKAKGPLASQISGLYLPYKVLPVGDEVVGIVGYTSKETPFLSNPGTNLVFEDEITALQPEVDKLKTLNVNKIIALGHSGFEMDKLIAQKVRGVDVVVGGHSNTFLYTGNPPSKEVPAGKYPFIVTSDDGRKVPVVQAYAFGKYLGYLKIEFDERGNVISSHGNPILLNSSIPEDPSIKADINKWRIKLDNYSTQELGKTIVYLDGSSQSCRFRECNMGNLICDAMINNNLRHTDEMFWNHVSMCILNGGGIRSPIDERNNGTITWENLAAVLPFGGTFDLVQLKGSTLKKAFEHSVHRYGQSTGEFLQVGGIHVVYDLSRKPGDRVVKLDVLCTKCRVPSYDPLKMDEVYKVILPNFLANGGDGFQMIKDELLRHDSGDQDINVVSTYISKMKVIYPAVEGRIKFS
Assay: Inhibition of Ecto-5′-nucleotidase (CD73) activity in CHO-CD73 cells, phosphate release from AMP
Assay type: cell-based
Conditions: CHO-K1 cells stably transfected with human CD73; 25 μM AMP; 50 minutes, 37° C.; read-out: Potency: CD73 IC50

Clc1ccc(Cn2nccc2-c2ccn3nnc(-c4ccc5cn[nH]c5c4)c3c2)c(Cl)c1 [Example 126] showed an IC50 of under 100 nM.

O=C(O)c1n[nH]c2cc(-n3nnc4c(Cl)cc(-c5ccnn5Cc5ccc(Cl)cc5Cl)cc43)ccc12 [Example 127] gave an IC50 of over 1000 nM.

Work on c1ccc(Cn2nccc2-c2cc3c(cn2)nnn3-c2ccc3cn[nH]c3c2)cc1 [Example 128] yielded an IC50 of 100 to 1000 nM.

Compound N#Cc1ccc(Cn2nccc2-c2cnc3nnn(-c4ccc5cn[nH]c5c4)c3c2)cc1 [Example 129] has an IC50 of 100 to 1000 nM.

Fc1c(-c2ccnn2Cc2ccccc2)ccc2nnn(-c3ccc4cn[nH]c4c3)c12 [Example 130] showed an IC50 of over 1000 nM.

Work on N#Cc1ccc(Cn2nccc2-c2cc(F)c3cnn(-c4ccc5cn[nH]c5c4)c3c2)nc1 [Example 131] yielded an IC50 of over 1000 nM.

Compound O=C(O)c1cccc(-n2nnc3c(F)cc(-c4ccnn4Cc4ccc(Cl)cc4Cl)cc32)c1 [Example 132] has an IC50 of over 1000 nM.

Fc1cc(-c2ccnn2Cc2ccc(Cl)cn2)cc2c1cnn2-c1ccc2cn[nH]c2c1 [Example 133] was tested, and the IC50 was over 1000 nM.

Clc1ccc(Cn2nccc2-c2cnc3nnn(-c4ccc5cn[nH]c5c4)c3c2)c(Cl)c1 [Example 134] was tested, and the IC50 was 100 to 1000 nM.

In the case of Fc1cc2nnn(-c3ccc4cn[nH]c4c3)c2cc1-c1ccnn1Cc1ccccc1 [Example 136], the IC50 is reported as over 1000 nM.

Fc1cc(-c2ccnn2Cc2ccccc2)cc2c1nnn2-c1cnc2cn[nH]c2c1 [Example 137] gave an IC50 of over 1000 nM.

Fc1cc(-c2ccnn2Cc2ccccc2)cc2c1nnn2-c1cc2[nH]ncc2cn1 [Example 138] gave an IC50 of over 1000 nM.

Compound Nc1cc(-n2nnc3c(Cl)cc(-c4ccnn4Cc4ccc(Cl)cc4Cl)cc32)ccn1 [Example 139] has an IC50 of 100 to 1000 nM.

For N#Cc1ccc(Cn2nccc2-c2cc3c(cn2)nnn3-c2ccc3cn[nH]c3c2)cc1 [Example 140], the IC50 was 100 to 1000 nM.

Clc1ccc(Cn2nccc2-c2cc3c(cn2)nnn3-c2ccc3cn[nH]c3c2)c(Cl)c1 [Example 142] showed an IC50 of under 100 nM.

With O=C1CCC(c2cc(F)c3nnn(-c4ccc5cn[nH]c5c4)c3c2)N1Cc1ccc(Cl)cc1Cl (stereo not shown) [Example 143] the IC50 was over 1000 nM.

In the case of N#Cc1ccc(Cn2nccc2-c2cc(F)c3nnn(-c4cc5[nH]ncc5cc4F)c3c2)cc1 [Example 144], the IC50 is reported as under 100 nM.

Compound N#Cc1ccc(Cn2nccc2-c2cc(Cl)c3nnn(-c4ccnc(N)c4)c3c2)nc1 [Example 145] has an IC50 of over 1000 nM.

For N#Cc1ccc(Cn2nccc2-c2cc3c(cn2)ncn3-c2ccc3cn[nH]c3c2)cc1 [Example 146], the IC50 was over 1000 nM.

N#Cc1ccc(Cn2nccc2-c2cc3c(cn2)cnn3-c2ccc3cn[nH]c3c2)cc1 [Example 147] showed an IC50 of over 1000 nM.

Clc1ccc(Cn2nccc2-c2cc3c(cn2)cnn3-c2ccc3cn[nH]c3c2)nc1 [Example 149] was tested, and the IC50 was over 1000 nM.

Work on N#Cc1ccc(Cn2nccc2-c2cc3c(cc2Cl)nnn3-c2ccc3cn[nH]c3c2)cc1 [Example 150] yielded an IC50 of under 100 nM.

N#Cc1ccc(Cn2nccc2-c2cc3c(cc2Cl)nnn3-c2ccc3cn[nH]c3c2)cc1 [Example 151] showed an IC50 of 100 to 1000 nM.

N#Cc1ccc(Cn2nccc2-c2cnc3cnn(-c4ccc5cn[nH]c5c4)c3c2)cc1 [Example 152] showed an IC50 of over 1000 nM.

O=c1[nH]c2ccc(-n3ncc4cnc(-c5ccnn5Cc5ccc(Cl)cn5)cc43)cc2[nH]1 [Example 153] showed an IC50 of over 1000 nM.

N#Cc1ccc(Cn2nccc2-c2cc3c(cn2)nnn3-c2ccc3[nH]c(=O)[nH]c3c2)cc1 [Example 154] gave an IC50 of 100 to 1000 nM.

Compound N#Cc1ccc(Cn2nccc2-c2cc(F)c3nnn(-c4ccc5c(c4)NC(=O)C5)c3c2)cc1 [Example 156] has an IC50 of over 1000 nM.

Work on N#Cc1ccc(Cn2nccc2-c2ccc3nnn(-c4ccc5[nH]c(=O)[nH]c5c4)c3c2)cc1 [Example 157] yielded an IC50 of 100 to 1000 nM.

O=c1[nH]c2ccc(-n3nnc4ncc(-c5ccnn5Cc5ccc(Cl)cc5Cl)cc43)cc2[nH]1 [Example 158] gave an IC50 of 100 to 1000 nM.

In the case of O=c1[nH]c2cc(-n3nnc4c(F)cc(-c5ccnn5Cc5ccc(Cl)cc5Cl)cc43)ccc2o1 [Example 159], the IC50 is reported as over 1000 nM.

Nc1cc(-n2nnc3c(F)cc(-c4ccnn4Cc4ccc(Cl)cn4)cc32)ccc1O [Example 160] gave an IC50 of over 1000 nM.

Work on O=c1[nH]c2cc(-n3nnc4c(F)cc(-c5ccnn5Cc5ccc(Cl)cn5)cc43)ccc2o1 [Example 161] yielded an IC50 of over 1000 nM.

Compound Nc1cccc(-n2nnc3c(Cl)cc(-c4ccnn4Cc4ccc(Cl)cc4Cl)cc32)c1 [Example 162] has an IC50 of over 1000 nM.

Work on Clc1ccc(Cn2nccc2-c2cnc3cnn(-c4ccc5cn[nH]c5c4)c3c2)c(Cl)c1 [Example 163] yielded an IC50 of 100 to 1000 nM.

With Clc1ccc(Cn2nccc2-c2cnc3cnn(-c4ccc5cn[nH]c5c4)c3c2)nc1 [Example 164] the IC50 was 100 to 1000 nM.

O=c1[nH]c2ccc(-n3nnc4cnc(-c5ccnn5Cc5ccc(Cl)cn5)cc43)cc2[nH]1 [Example 165] showed an IC50 of 100 to 1000 nM.

With N#Cc1ccc(Cn2nccc2-c2cc(F)c3nnn(-c4ccc5oc(=O)[nH]c5c4)c3c2)cc1 [Example 166] the IC50 was over 1000 nM.

Work on Cc1nc(-c2ccnn2Cc2ccc(C#N)cc2)cc2c1nnn2-c1ccc2cn[nH]c2c1 [Example 169] yielded an IC50 of 100 to 1000 nM.

For O=c1[nH]c2ccc(-n3nnc4c(F)cc(-c5ccnn5Cc5ccc(Cl)cc5Cl)cc43)cc2[nH]1 [Example 170], the IC50 was 100 to 1000 nM.

O=c1[nH]c2ccc(-n3nnc4c(F)cc(-c5ccnn5Cc5ccc(Cl)cn5)cc43)cc2[nH]1 [Example 171] showed an IC50 of 100 to 1000 nM.

For Fc1ccc(Cn2nccc2-c2cc(F)c3nnn(-c4ccc5nc[nH]c5c4)c3c2)nc1 [Example 172], the IC50 was over 1000 nM.

Compound O=c1[nH]c2ccc(-n3nnc4c(F)cc(-c5ccnn5Cc5ccc(F)cn5)cc43)cc2[nH]1 [Example 173] has an IC50 of 100 to 1000 nM.

Work on O=c1[nH]c2ccc(-n3nnc4c(F)cc(-c5ccnn5Cc5ccc(F)cn5)cc43)cc2[nH]1 [Example 174] yielded an IC50 of over 1000 nM.

N#Cc1ccc(Cn2nccc2-c2cc(F)c3c(N)nn(-c4ccc5[nH]c(=O)[nH]c5c4)c3c2)cc1 [Example 175] showed an IC50 of over 1000 nM.

N#Cc1ccc(Cn2nccc2-c2cc(F)c3nnn(-c4ccc5[nH]c(=O)[nH]c5c4)c3c2)nc1 [Example 176] showed an IC50 of 100 to 1000 nM.

In the case of Fc1cc(-c2ccnn2Cc2ccc(-c3ncco3)cc2)cc2c1nnn2-c1ccc2cn[nH]c2c1 [Example 177], the IC50 is reported as over 1000 nM.

N#Cc1ccc(Cn2nccc2-c2cc3c(cn2)nnn3-c2ccc3[nH]c(=O)[nH]c3c2)nc1 [Example 178] gave an IC50 of 100 to 1000 nM.

With N#Cc1ccc(Cn2nccc2-c2cnc3cnn(-c4ccc5cn[nH]c5c4)c3c2)nc1 [Example 179] the IC50 was over 1000 nM.

Work on N#Cc1ccc(Cn2nccc2-c2cnc3cnn(-c4ccc5[nH]c(=O)[nH]c5c4)c3c2)cc1 [Example 180] yielded an IC50 of over 1000 nM.

Fc1ccc(Cn2nccc2-c2cnc3cnn(-c4ccc5cn[nH]c5c4)c3c2)nc1 [Example 181] gave an IC50 of over 1000 nM.

With CC(O)c1ccc(Cn2nccc2-c2cc(F)c3nnn(-c4ccc5[nH]c(=O)[nH]c5c4)c3c2)cc1 (stereo not shown) [Example 182] the IC50 was over 1000 nM.

CC(C)(O)c1ccc(Cn2nccc2-c2cc(F)c3nnn(-c4ccc5[nH]c(=O)[nH]c5c4)c3c2)cc1 [Example 183] gave an IC50 of over 1000 nM.

For O=C(Cn1nccc1-c1cc(Cl)c2nnn(-c3ccc4cn[nH]c4c3)c2c1)N1CCCCC1 [Example 184], the IC50 was over 1000 nM.

For CC(NC(=O)Cn1nccc1-c1cc(Cl)c2nnn(-c3ccc4cn[nH]c4c3)c2c1)c1ccccc1 (stereo not shown) [Example 185], the IC50 was over 1000 nM.

Compound O=c1[nH]c2ccc(-n3nnc4c(Cl)cc(-c5ccnn5Cc5ccc(Cl)cc5Cl)cc43)cc2[nH]1 [Example 186] has an IC50 of 100 to 1000 nM.

Compound CN(C(=O)Cn1nccc1-c1cc(Cl)c2nnn(-c3ccc4cn[nH]c4c3)c2c1)c1ccccc1 [Example 187] has an IC50 of over 1000 nM.

Work on N#Cc1ccc(Cn2nccc2-c2cc(Cl)c3nnn(-c4ccc5[nH]c(=O)[nH]c5c4)c3c2)cc1 [Example 188] yielded an IC50 of 100 to 1000 nM.

Work on O=c1[nH]c2ccc(-n3nnc4cnc(-c5ccnn5Cc5ccc(F)cn5)cc43)cc2[nH]1 [Example 189] yielded an IC50 of 100 to 1000 nM.

In the case of O=c1[nH]c2ccc(-n3ncc4ncc(-c5ccnn5Cc5ccc(Cl)cc5Cl)cc43)cc2[nH]1 [Example 190], the IC50 is reported as 100 to 1000 nM.

Compound O=c1[nH]c2ccc(-n3nnc4c(F)cc(-c5ccnn5Cc5ccc(Cl)cc5F)cc43)cc2[nH]1 [Example 191] has an IC50 of 100 to 1000 nM.

Work on O=c1[nH]c2ccc(-n3nnc4c(F)cc(-c5ccnn5Cc5ccc(Cl)c(F)c5)cc43)cc2[nH]1 [Example 192] yielded an IC50 of 100 to 1000 nM.

O=c1[nH]c2ccc(-n3nnc4cnc(-c5ccnn5Cc5ccc(Cl)cc5F)cc43)cc2[nH]1 [Example 193] was tested, and the IC50 was 100 to 1000 nM.

O=c1[nH]c2ccc(-n3nnc4cnc(-c5ccnn5Cc5ccc(Cl)c(F)c5)cc43)cc2[nH]1 [Example 194] showed an IC50 of 100 to 1000 nM.

O=c1[nH]c2ccc(-n3nnc4c(F)cc(-c5ccnn5Cc5ccc6cn[nH]c6c5)cc43)cc2[nH]1 [Example 195] gave an IC50 of 100 to 1000 nM.

O=c1[nH]c2ccc(-n3nnc4cnc(-c5ccnn5-c5cccc(F)c5)cc43)cc2[nH]1 [Example 196] was tested, and the IC50 was over 1000 nM.

N#Cc1cccc(-n2nccc2-c2cc3c(cn2)nnn3-c2ccc3[nH]c(=O)[nH]c3c2)c1 [Example 197] gave an IC50 of over 1000 nM.

N#Cc1cccc(-n2nccc2-c2cc(F)c3nnn(-c4ccc5[nH]c(=O)[nH]c5c4)c3c2)c1 [Example 198] gave an IC50 of over 1000 nM.

O=c1[nH]c2ccc(-n3nnc4c(Cl)cc(-c5ccnn5Cc5ccc(F)cn5)cc43)cc2[nH]1 [Example 200] showed an IC50 of 100 to 1000 nM.

In the case of O=c1[nH]c2ccc(-n3nnc4c(F)cc(-c5ccnn5Cc5ccccn5)cc43)cc2[nH]1 [Example 201], the IC50 is reported as over 1000 nM.

For O=c1[nH]c2ccc(-n3nnc4c(F)cc(-c5ccnn5CCOc5ccccc5)cc43)cc2[nH]1 [Example 202], the IC50 was over 1000 nM.
